The results in this text go back to BindingDB's records for doi:10.7270/Q2F18X40 (Nmmlsc, 2009).

pEC50: −log10 of the molar value.

The target in this assay is Ras-related protein Rab-7a (Canis lupus familiaris, UniProt P18067). Kind of assay: analogs blocking nucleotide binding to wildtype Rab7 – biochemical, oxadiazole analogs, multiplex bead flow cytometry, SAR follow-up (AID 2031). Conditions: inactive by the depositor's call. (A flow cytometer gives signals particle by particle.)
Sequence of Ras-related protein Rab-7a (P18067 whole entry): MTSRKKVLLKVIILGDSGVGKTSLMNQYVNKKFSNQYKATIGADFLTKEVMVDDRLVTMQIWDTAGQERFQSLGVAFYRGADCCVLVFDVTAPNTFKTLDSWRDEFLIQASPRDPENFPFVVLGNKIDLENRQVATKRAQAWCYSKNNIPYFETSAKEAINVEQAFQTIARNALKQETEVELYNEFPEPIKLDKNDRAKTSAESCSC

What is called pEC50 is −log10 of the EC50, conventionally taken in molar units. A low value points to a high EC50. For the compound `COc1ccc(-c2noc(CCC(=O)N3CCN(c4ccc(C(F)(F)F)cc4)CC3)n2)cc1` [3-[3-(4-methoxyphenyl)-1,2,4-oxadiazol-5-yl]-1-[4-[4-(trifluoromethyl)phenyl]piperazin-1-yl]propan-1-one], the pEC50 was 4.52.

Consider `Cc1ccc(-c2noc(CCC(=O)N3CCN(c4cc(C)ccc4C)CC3)n2)cc1` [1-[4-(2,5-dimethylphenyl)-1-piperazinyl]-3-[3-(4-methylphenyl)-1,2,4-oxadiazol-5-yl]-1-propanone], for which the pEC50 is 5.36.

As for `COc1ccc(-c2cc(CCC(=O)N3CCN(c4cc(C)ccc4C)CC3)on2)cc1` [1-[4-(2,5-dimethylphenyl)piperazin-1-yl]-3-[3-(4-methoxyphenyl)-1,2-oxazol-5-yl]propan-1-one], the pEC50 was 6.52.

The compound `Cc1ccc(C)c(N2CCN(C(=O)CCc3nc(-c4ccccc4C(F)(F)F)no3)CC2)c1` gave a pEC50 of 4.52.

On to `Cc1ccc(C)c(N2CCN(C(=O)CCc3nc(-c4ccccc4Cl)no3)CC2)c1` [3-[3-(2-chlorophenyl)-1,2,4-oxadiazol-5-yl]-1-[4-(2,5-dimethylphenyl)-1-piperazinyl]-1-propanone], for which the pEC50 was 4.52.

For `Cc1ccc(C)c(N2CCN(C(=O)CCc3nc(-c4ccccc4F)no3)CC2)c1` [KUC103401N], the pEC50 was 4.52.

As to `COc1ccc(-c2noc(CCC(=O)N3CCN(c4cccc(Br)c4)CC3)n2)cc1` [1-[4-(3-bromophenyl)-1-piperazinyl]-3-[3-(4-methoxyphenyl)-1,2,4-oxadiazol-5-yl]-1-propanone], the pEC50 was 4.52.

Consider `COc1ccc(-c2noc(CCC(=O)N3CCN(c4cccc(F)c4)CC3)n2)cc1` [1-[4-(3-fluorophenyl)piperazin-1-yl]-3-[3-(4-methoxyphenyl)-1,2,4-oxadiazol-5-yl]propan-1-one], for which the pEC50 is 4.52.

Turning to `COc1ccc(-c2ccc(CCC(=O)N3CCN(c4cc(C)ccc4C)CC3)s2)cc1`, the pEC50 was 4.52.

Take `COc1ccc(-c2noc(CCC(=O)N3CCN(c4ccc(Br)cc4)CC3)n2)cc1` [1-[4-(4-bromophenyl)piperazin-1-yl]-3-[3-(4-methoxyphenyl)-1,2,4-oxadiazol-5-yl]propan-1-one]: the pEC50 was 4.52.

In the case of `Cc1ccc(C)c(N2CCN(C(=O)CCc3nc(-c4cccc(F)c4)no3)CC2)c1` [KUC103366N], the pEC50 was 5.11.

Compound `COc1ccc(-c2noc(CCC(=O)N3CCN(c4ccccc4OC)CC3)n2)cc1` [3-[3-(4-methoxyphenyl)-1,2,4-oxadiazol-5-yl]-1-[4-(2-methoxyphenyl)-1-piperazinyl]-1-propanone] showed a pEC50 of 4.52.

The compound `COc1ccc(-c2noc(CCC(=O)N3CCN(c4cccc(C)c4C)CC3)n2)cc1` [1-[4-(2,3-dimethylphenyl)-1-piperazinyl]-3-[3-(4-methoxyphenyl)-1,2,4-oxadiazol-5-yl]-1-propanone] showed a pEC50 of 5.81.

`Cc1ccc(C)c(N2CCN(C(=O)CCc3nc(-c4ccccc4Br)no3)CC2)c1` [3-[3-(2-bromophenyl)-1,2,4-oxadiazol-5-yl]-1-[4-(2,5-dimethylphenyl)-1-piperazinyl]-1-propanone] showed a pEC50 of 5.38.

As to `COc1ccc(-c2noc(CCC(=O)N3CCN(c4ccc(OC)cc4)CC3)n2)cc1` [3-[3-(4-methoxyphenyl)-1,2,4-oxadiazol-5-yl]-1-[4-(4-methoxyphenyl)piperazin-1-yl]propan-1-one], the negative-log EC50 (pEC50) is 4.52.

For `Cc1ccc(C)c(N2CCN(C(=O)CCc3nc(-c4ccc(F)cc4)no3)CC2)c1` [KUC103364N], the negative logarithm of the EC50 (pEC50) was 6.18.

`COc1ccc(-c2noc(CCC(=O)N3CCN(c4ccc(F)cc4)CC3)n2)cc1` [KUC103398N] had a pEC50 of 4.52.

Regarding `COc1ccc(-c2noc(CCCCC(=O)N3CCN(c4cc(C)ccc4C)CC3)n2)cc1` [1-[4-(2,5-dimethylphenyl)-1-piperazinyl]-5-[3-(4-methoxyphenyl)-1,2,4-oxadiazol-5-yl]-1-pentanone], the negative logarithm of the EC50 (pEC50) is 4.52.

For `COc1ccc(-c2noc(CCC(=O)N3CCC(c4cc(C)ccc4C)CC3)n2)cc1` [KUC103432N], the negative-log EC50 (pEC50) was 5.88.

Consider `COc1ccc(-c2cccc(CCC(=O)N3CCN(c4cc(C)ccc4C)CC3)c2)cc1` [UNM-0000306127], for which the pEC50 was 4.52.

In turn, `COc1ccc(-c2cc(CCC(=O)N3CCN(c4cc(C)ccc4C)CC3)[nH]n2)cc1` [UNM-0000306150] gave a pEC50 of 4.52.

Turning to `COc1ccc(-c2noc(CC(=O)N3CCN(c4cc(C)ccc4C)CC3)n2)cc1` [1-[4-(2,5-dimethylphenyl)piperazin-1-yl]-2-[3-(4-methoxyphenyl)-1,2,4-oxadiazol-5-yl]ethanone], the pEC50 was 4.52.

`COc1ccc(-c2noc(CCC(=O)N3CCN(c4ccccc4Cl)CC3)n2)cc1` [1-[4-(2-chlorophenyl)piperazin-1-yl]-3-[3-(4-methoxyphenyl)-1,2,4-oxadiazol-5-yl]propan-1-one] gave a negative logarithm of the EC50 (pEC50) of 5.64.

On to `Cc1ccc(C)c(N2CCN(C(=O)CCc3nc(-c4ccc(N(C)C)cc4)no3)CC2)c1` [KUC103409N], for which the pEC50 was 4.52.

For `COc1ccc(-c2ccc(CCC(=O)N3CCN(c4cc(C)ccc4C)CC3)[nH]2)cc1` [1-[4-(2,5-dimethylphenyl)piperazin-1-yl]-3-[5-(4-methoxyphenyl)-1H-pyrrol-2-yl]propan-1-one], the pEC50 was 4.52.

For the compound `COc1ccc(-c2noc(CCC(=O)N3CCN(c4cccc(C)c4)CC3)n2)cc1` [UNM-0000306125], the pEC50 was 4.52.

On to `COc1ccc(-c2ccc(CCC(=O)N3CCN(c4cc(C)ccc4C)CC3)o2)cc1` [KUC103447N], for which the pEC50 was 4.52.

As for `COc1ccc(-c2noc(CCC(=O)N3CCN(c4cccc(Cl)c4)CC3)n2)cc1`, the negative-log EC50 (pEC50) was 4.51.

`COc1ccccc1-c1noc(CCC(=O)N2CCN(c3cc(C)ccc3C)CC2)n1` [UNM-0000306071] showed a pEC50 of 4.52.

`Cc1ccc(C)c(N2CCN(C(=O)CCc3nc(-c4cccc(Cl)c4)no3)CC2)c1` [UNM-0000306086] showed a pEC50 of 4.52.

Take `Cc1ccc(C)c(N2CCN(C(=O)CCc3nc(-c4ccc(C(F)(F)F)cc4)no3)CC2)c1` [1-[4-(2,5-dimethylphenyl)-1-piperazinyl]-3-[3-[4-(trifluoromethyl)phenyl]-1,2,4-oxadiazol-5-yl]-1-propanone]: the pEC50 was 4.52.

`COc1ccc(-c2noc(CCC(=O)N3CCN(c4ccc(C)cc4)CC3)n2)cc1` [3-[3-(4-methoxyphenyl)-1,2,4-oxadiazol-5-yl]-1-[4-(4-methylphenyl)piperazin-1-yl]propan-1-one]: the negative logarithm of the EC50 (pEC50) was 4.52.

With `Cc1ccc(C)c(N2CCN(C(=O)CCc3nc(-c4ccccc4C)no3)CC2)c1`, the negative-log EC50 (pEC50) was 5.26.

In turn, `COc1ccc(-c2noc(CCC(=O)N3CCN(c4ccccc4Br)CC3)n2)cc1` [KUC103370N] gave a pEC50 of 5.65.

`Cc1cccc(-c2noc(CCC(=O)N3CCN(c4cc(C)ccc4C)CC3)n2)c1` [1-[4-(2,5-dimethylphenyl)piperazin-1-yl]-3-[3-(3-methylphenyl)-1,2,4-oxadiazol-5-yl]propan-1-one] gave a pEC50 of 5.99.

Compound `COc1cccc(-c2noc(CCC(=O)N3CCN(c4cc(C)ccc4C)CC3)n2)c1` showed a negative logarithm of the EC50 (pEC50) of 5.46.

In turn, `COc1ccc(-c2noc(CCC(=O)N3CCN(c4ccc(Cl)cc4)CC3)n2)cc1` [UNM-0000306121] had a pEC50 of 4.52.

`COc1ccc(-c2noc(CCC(=O)N3CCN(c4ccccc4C)CC3)n2)cc1`: the pEC50 was 4.52.

Compound `COc1ccc(-c2noc(CCC(=O)N3CCN(c4cccc(C(F)(F)F)c4)CC3)n2)cc1` [1-{3-[3-(4-methoxyphenyl)-1,2,4-oxadiazol-5-yl]propanoyl}-4-[3-(trifluoromethyl)phenyl]piperazine] gave a pEC50 of 4.52.

With `Cc1ccc(C)c(N2CCN(C(=O)CCc3nc(-c4cccc(Br)c4)no3)CC2)c1` [KUC103367N], the pEC50 is 5.45.

`Cc1ccc(C)c(N2CCN(C(=O)CCc3nc(-c4ccc(Br)cc4)no3)CC2)c1` [UNM-0000306072]: the pEC50 is 5.80.

As for `Cc1ccc(C)c(N2CCN(C(=O)CCc3nc(-c4ccc(Cl)cc4)no3)CC2)c1` [UNM-0000306083], the pEC50 was 5.54.

Take `COc1ccc(-c2coc(CCC(=O)N3CCN(c4cc(C)ccc4C)CC3)n2)cc1` [1-[4-(2,5-dimethylphenyl)piperazin-1-yl]-3-[4-(4-methoxyphenyl)-1,3-oxazol-2-yl]propan-1-one]: the pEC50 was 4.52.

`COc1ccc(-c2noc(CCC(=O)N3CCN(c4ccccc4)CC3)n2)cc1` [3-[3-(4-methoxyphenyl)-1,2,4-oxadiazol-5-yl]-1-(4-phenylpiperazin-1-yl)propan-1-one]: the pEC50 is 4.52.

As for `Cc1ccc(C)c(N2CCN(C(=O)CCc3nc(-c4ccccc4)no3)CC2)c1` [UNM-0000306070], the pEC50 is 5.93.

Compound `COc1ccc(-c2noc(CCC(=O)N3CCN(c4cccc(OC)c4)CC3)n2)cc1` [KUC103349N] gave a pEC50 of 4.52.

`COc1ccc(-c2noc(CCCC(=O)N3CCN(c4cc(C)ccc4C)CC3)n2)cc1` [KUC103353N] had a pEC50 of 4.84.

The compound `COc1ccc(-c2noc(CCC(=O)N3CCN(c4cc(C)ccc4C)CC3)n2)cc1` [1-[4-(2,5-dimethylphenyl)-1-piperazinyl]-3-[3-(4-methoxyphenyl)-1,2,4-oxadiazol-5-yl]-1-propanone] gave a negative logarithm of the EC50 (pEC50) of 5.62.

With `COc1ccc(-c2noc(CCC(=O)N3CCN(c4ccccc4C(F)(F)F)CC3)n2)cc1` [UNM-0000306082], the pEC50 was 5.71.

In turn, `Cc1ccc(C)c(N2CCN(C(=O)CCc3nc(-c4cccc(C(F)(F)F)c4)no3)CC2)c1` [KUC103380N] had a pEC50 of 6.15.

`COc1ccc(-c2noc(CCC(=O)N3CCN(c4ccccc4F)CC3)n2)cc1` [1-[4-(2-fluorophenyl)piperazin-1-yl]-3-[3-(4-methoxyphenyl)-1,2,4-oxadiazol-5-yl]propan-1-one] gave a pEC50 of 6.20.
